The test system of assay [1] is L. plantarum WCFS1 strains (with or without S. haemolyticus RseP). It is filed as cell-based, Lactobacillus plantarum. On the procedure: (§1) A semi-quantitative spot-on-lawn inhibitory assay was performed on 51 bacterial indicator strains (Table S1) to determine the bacteriocins inhibition spectra. Overnight cultures were diluted 1:100 in BHI soft agar and distributed on BHI agar plates. Once solidified, bacteriocins with various concentrations were applied on designated spots. The plates were incubated at appropriate temperature O/N and inhibition zones were measured the following day. To determine minimal inhibitory concentration (MIC50) of H1 against clinical S. haemolyticus isolates (Table S2), as well as strains heterologously expressing RseP (Table S4), the microtiterplate antimicrobial assay was performed as previously described[41],[79]. MIC50 was defined as the minimal bacteriocin concentration needs to inhibit the growth of a bacterial strain by at least 50%.
rseP (Uniprot: Q4L5W4) derived from S. haemolyticus 7067_4_21 was heterologously expressed in the naturally H1-resistant L. plantarum WCFS1[36] using the vector pSIP expression system[84],[85]. First, pLp1261_InvS, a pSIP401 derivative[84],[86], was linearized using FastDigest Restrictiction Enzymes NdeI and Acc65I (ThermoFisher Scientific) to isolate the vector part. Second, rseP was amplified by PCR using specially designed In-Fusion Primes (Table S6), giving amplicons with complementary ends to the linearized vector. The In-Fusion HD cloning Kit (Takara Bio) was used to fuse rseP into the linearized vector, yielding pSIP401_SHRseP. The plasmid was subsequently transformed to E.coli TOP10 (ThermoFischer Scientific). Plasmid DNA from E. coli was isolated using NucleoSpin Plasmid Kit (Macherey–Nagel). The DNA sequence of all PCR amplified fragments was verified by sequencing at Eurofins GATC, Germany, and before being electroporated into L. plantarum WCSF1 following the procedure described by Aukrust and Blom[87].

Assay [2] relates to clinical and commensial S. haemolyticus isolates. The assay is classed as cell-based, Staphylococcus haemolyticus. The following applies: 5 h. On the procedure:
as §1

Assay [3] relates to planktonic S. haemolyticus. The assay is classed as cell-based, Staphylococcus haemolyticus. On the procedure:
Synergistic interactions between antimicrobials were determined using the fractional inhibition concentration (FIC) as previously described. The FIC values were determined using a mirotiterplate checkerboard assay. Briefly, antimirobial A was applied in wells A1–H1 then diluted two-fold in wells 2–12. In a second microtiter plate, antimicrobial B was applied in wells A1–A12, then diluted two folds in wells B–H. Fifty μl of the serial diluted antimirobial A was transferred to the wells of a third microtiter plate, except for wells H1–H12. Similarly, 50 μl of the serial diluted antimicrobial B was transferred to the same microtiter plate, except for wells A1–A12. Wells H1-12 and wells A1-12 contained only one of the antimicrobials and was used to estimate the MIC value of the pure substance. After combining the antimicrobials, 100 μl of a 1:25 diluted O/N of S. haemolyticus was transferred to each well of the third microplate, while 50 μl of medium was added to wells H1-12 and A1-12. […] FIC values were calculated as follows: FIC = FICa + FICb + FICc, where the FICa means MIC of A in combination/MIC of A alone, FICb means MIC of B in combination/MIC of B, and FICc means MIC of C in combination/MIC of C alone. Effects were considered as synergistic if FIC was ≤ 0.5 for two components mixture[81] and ≤ 0.75 for three components mixture.

The subject of assay [4] is Staphylococcus haemolyticus strains. The assay can be described thus: Spot-on-lawn inhibition assay. As to conditions: six S. haemolyticus strains 4068–4073; 0.04, 0.2 and 1.0 mg/ml, 5 µl spotted. It is filed as cell-based. On the procedure:
as §1

The mark [5] stands for this setting: S. haemolyticus 4068, planktonic cells, 5 h exposure.
The mark [6] stands for this setting: S. haemolyticus 4068, planktonic cells, 24 h exposure.
Setting [7] is: S. haemolyticus 4068, planktonic cells, 48 h exposure.
Where [8] appears, read: S. haemolyticus 4069, planktonic cells, 5 h exposure.
The mark [9] stands for this setting: S. haemolyticus 4069, planktonic cells, 24 h exposure.
The mark [10] stands for this setting: S. haemolyticus 4069, planktonic cells, 48 h exposure.
Setting [11] is: S. haemolyticus 4070, planktonic cells, 5 h exposure.
[12] abbreviates: S. haemolyticus 4070, planktonic cells, 24 h exposure.
[13] abbreviates: S. haemolyticus 4070, planktonic cells, 48 h exposure.
Where [14] appears, read: S. haemolyticus 4071, planktonic cells, 5 h exposure.
[15] abbreviates: S. haemolyticus 4071, planktonic cells, 24 h exposure.
The mark [16] stands for this setting: S. haemolyticus 4071, planktonic cells, 48 h exposure.
[17] abbreviates: S. haemolyticus 4072, planktonic cells, 5 h exposure.
The mark [18] stands for this setting: S. haemolyticus 4072, planktonic cells, 24 h exposure.
[19] abbreviates: S. haemolyticus 4072, planktonic cells, 48 h exposure.
Setting [20] is: S. haemolyticus 4073, planktonic cells, 5 h exposure.
The mark [21] stands for this setting: S. haemolyticus 4073, planktonic cells, 24 h exposure.
[22] abbreviates: S. haemolyticus 4073, planktonic cells, 48 h exposure.

Read-outs that look alike come from different tables or passages of the source. Where no end group is shown, it is not given here.

Take “MKFKFNPTGTIVKKLTQYEINWYKQQYGRYPWERPVA [H1]”: the “Minimal inhibitory concentration (MIC)” value in assay [1] (L. plantarum WCFS1) was more than 50 µg/mL; in assay [1] (L. plantarum WCFS1/pEV, expressing empty vector) it was more than 50 µg/mL; in assay [1] (L. plantarum WCFS1/pSIP401_SHRseP, expressing RseP from S. haemolyticus 7067_4_21), 0.39 µg/mL. Also, in assay [2], the “MIC50 against the different S. haemolyticus strains” value lay in the range of 100 to 780 µg/mL. Further, the “MIC50 over the tested strains” value in assay [3] (planktonic, 5 h) worked out at 0.78 µg/mL. Besides, the “MIC, individual component” value in assay [3] (planktonic, 24 h) was 0.78 µg/mL.
For the substance SCTTCVCTCSCCTT [MP1, micrococcin P1], the “MIC, individual component” value is 0.02 µg/mL in assay [3] (setting [5]); 0.023 µg/mL in assay [3] (setting [6]); 0.078 µg/mL in assay [3] (setting [7]); 0.15 µg/mL in assay [3] (setting [8]); more than 10 µg/mL in assay [3] (setting [9]); more than 10 µg/mL in assay [3] (setting [10]). Further, the “MIC, individual component” value in assay [3] (setting [11]) is 0.02 µg/mL; in assay [3] (setting [12]) it was 0.33 µg/mL; in assay [3] (setting [13]) it was 0.13 µg/mL; in assay [3] (setting [14]) it was 0.043 µg/mL; in assay [3] (setting [15]) it was more than 10 µg/mL; in assay [3] (setting [16]), more than 10 µg/mL. Further, the “MIC, individual component” value was 0.039 µg/mL in assay [3] (setting [17]); more than 10 µg/mL in assay [3] (setting [18]); 0.63 µg/mL in assay [3] (setting [19]); 0.022 µg/mL in assay [3] (setting [20]); 0.072 µg/mL in assay [3] (setting [21]); 0.14 µg/mL in assay [3] (setting [22]). Further, in assay [4], the “Inhibition zones at three concentrations” value is reported as “clear inhibition zones at all three concentrations”.
For the substance garvicin KS [GarKS], the “MIC, individual component” value amounted to 6.5 µg/mL in assay [3] (setting [5]); 24 µg/mL in assay [3] (setting [6]); 25 µg/mL in assay [3] (setting [7]); 3.3 µg/mL in assay [3] (setting [8]); 13 µg/mL in assay [3] (setting [9]); 26 µg/mL in assay [3] (setting [10]). The “MIC, individual component” value was found to be 12 µg/mL in assay [3] (setting [11]); 48 µg/mL in assay [3] (setting [12]); 51 µg/mL in assay [3] (setting [13]); 12.5 µg/mL in assay [3] (setting [14]); 51 µg/mL in assay [3] (setting [15]); 100 µg/mL in assay [3] (setting [16]). The “MIC, individual component” value in assay [3] (setting [17]) was 23.6 µg/mL; in assay [3] (setting [18]), 49 µg/mL; in assay [3] (setting [19]) it was 52 µg/mL; in assay [3] (setting [20]) it was 12.5 µg/mL; in assay [3] (setting [21]), 51 µg/mL; in assay [3] (setting [22]), 51 µg/mL. Moreover, the “Inhibition zones at three concentrations” value in assay [4] is listed as “some inhibition was seen only at the highest concentration”.

The record behind these values is PMC8260761, “A bacteriocin-based treatment option for Staphylococcus haemolyticus biofilms” (Scientific Reports, 2021).
